Results published in patent publication US20250059160A1, “Chemical Activators of Nicotinamide Mononucleotide adenylyltransferase 2 (NMNAT2) and Uses Thereof” (Tsinghua University, priority 2018, published 2025).
“Also recorded” adds a separate entry of the source.

Key:
[1] = tested on: CIPN mice model; test: paclitaxel-induced CIPN mouse model, Von Frey test; format: in vivo
Description: The procedure of CIPN mouse model and treatment regimen is shown in the upper panel.
Chemotherapy-induced peripheral neuropathy (CIPN) arises from the peripheral nerve damage by anticancer pharmacotherapy, leading to a progressive, enduring, and debilitating condition featuring pain, numbness, tingling and sensitivity to cold in the hands and feet. CIPN afflicts between 30% and 40% of patients undergoing chemotherapy, but currently no effective treatment for CIPN exists (del Pino BM, 2010). Chemotherapy drugs associated with CIPN include the antimitotic drugs such as paclitaxel and vinblastine, which are widely used for the treatment of a variety of cancer. To evaluate the neuroprotective efficacy of the compounds in vivo, we developed an aggressive CIPN mice model as presented in FIG. 5.
Mice were daily administrated with compound 20, at doses of 6, 2, 0.6 and 0 mg/kg (5 animals per group, i.p.) from one week prior to the initiation of paclitaxel (D-7) to 8th day after the initiation of paclitaxel (D8). After one-week pre-dosing with compound 20, mice were injected intraperitoneally with paclitaxel at a dose of 2 mg/kg on 4 alternate days (Day 0, 2, 4, 6). The Von Frey test was conducted the other day after the last administration of paclitaxel. […] Mice were daily administrated with compound NSC, at doses of 1, 3, and 10 mg/kg (5-6 animals per group, i.p.) from one week prior to the initiation of taxol (paclitaxel) (D-7) to 8th day after the initiation of paclitaxel (D8). After one-week pre-dosing with compound NSC, mice were injected intraperitoneally with paclitaxel at a dose of 2 mg/kg on 4 alternate days (Day 0, 2, 4, 6). The Von Frey test was conducted the other day after the last administration of taxol (paclitaxel).

[2] = tested on: SARM1-expressing cells; test: protection from SARM1-mediated toxicity, cell viability by CellTiter-Glo; format: cell-based; conditions: 0.1, 0.3, 1, 3, 10, and 30 μM, 24 hours, FIG. 4
Procedure: SARM1-expressing cells were treated with compound NSC at 0.1, 0.3, 1, 3, 10, and 30 μM. After 24 hours, the cell images in bright field were taken under the microscope before cell viability was determined by measuring ATP levels using CellTiter-Glo assay kit.
In the first assay, the compounds were added at 1, 3, 10, 30 and 100 μM in the reaction mixture. The reaction rate of NMNAT2 enzyme was calculated as the slope of the F340/445 versus time curve, and was normalized by DMSO-treated control. The dose response curves were plotted to assess the effects of individual compounds on NMNAT2 enzymatic activity. […] After 24 hours, the cell survival was measured by Cell-titer Glo kit, and normalized by DMSO-treated control. […]
Compounds NSC and 1-40 were evaluated in two independent assays: an in vitro enzyme assay measuring activation of NMNAT2 and a cell-based assay measuring the degree of protection from SARM1 expression in cells. […] The conversion of NMN to NADH was monitored by measuring fluorescence intensity of NADH at an excitation of 340 nm and an emission of 445 nm (Y axis) as a function of time (X axis). Fluorescence at ex340 nm/em445 nm (F340/445) was measured continuously for 30 minutes at room temperature to establish the reaction velocity. The reaction rate of NMNAT2 enzyme was expressed as the concentration of NADH (equivalent to NAD) formed per minute. […]

[3] = target: NMNAT2 (Homo sapiens, UniProt Q9BZQ4); test: doubly coupled NMNAT2 enzyme assay (NMNAT2 + ADH, NADH fluorescence); format: biochemical
Sequence of NMNAT2 (Q9BZQ4 whole entry, species assumed): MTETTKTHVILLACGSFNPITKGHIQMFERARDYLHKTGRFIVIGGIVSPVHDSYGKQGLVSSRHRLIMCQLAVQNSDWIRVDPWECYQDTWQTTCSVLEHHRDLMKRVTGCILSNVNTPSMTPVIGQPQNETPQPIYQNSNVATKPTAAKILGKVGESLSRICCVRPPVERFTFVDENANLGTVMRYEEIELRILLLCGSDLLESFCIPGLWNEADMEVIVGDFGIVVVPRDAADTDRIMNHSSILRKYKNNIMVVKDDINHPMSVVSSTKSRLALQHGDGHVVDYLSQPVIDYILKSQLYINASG
Procedure: In a doubly coupled enzyme assay, the first enzyme NMNAT2 (it converted NMN to NAD) and the second enzyme ADH (it converted NAD to NADH) as well as compound NSC at a concentration of 3 μM were used, and the conversion of NMN to NADH was monitored by measuring fluorescence intensity of NADH at an excitation of 340 nm and an emission of 445 nm (Y axis) as a function of time (X axis).
A high-throughput screen was performed in search of compounds capable of activating NMNAT2, an important NAD biosynthetic enzyme. Roughly 50,000 synthetic organic chemicals were tested in a doubly coupled NMNAT assay that contains two enzymes, NMNAT2 and alcohol dehydrogenase (ADH). […] The conversion of NMN to NADH was monitored by measuring fluorescence intensity of NADH at an excitation of 340 nm and an emission of 445 nm (Y axis) as a function of time (X axis). Fluorescence at ex340 nm/em445 nm (F340/445) was measured continuously for 30 minutes at room temperature to establish the reaction velocity. […] The reaction rate is expressed as the concentration of NADH (equivalent to NAD) formed per minute. Since the concentration of NADH is reflected by F340/445, the reaction rate is thus the slope of the linear kinetic curve of F340/445 versus time at time t, written as F340 445/min, which is calculated in the equation: reaction rate=ΔF340/445/Δt. […]

[4] = target: NMNAT3 (Homo sapiens, UniProt Q96T66); test: doubly coupled enzyme assay prepared for NMNAT3; format: biochemical; conditions: 3 μM compound, FIG. 3, NMNAT isoform comparison
Sequence of NMNAT3 (Q96T66 whole entry, species assumed, canonical isoform): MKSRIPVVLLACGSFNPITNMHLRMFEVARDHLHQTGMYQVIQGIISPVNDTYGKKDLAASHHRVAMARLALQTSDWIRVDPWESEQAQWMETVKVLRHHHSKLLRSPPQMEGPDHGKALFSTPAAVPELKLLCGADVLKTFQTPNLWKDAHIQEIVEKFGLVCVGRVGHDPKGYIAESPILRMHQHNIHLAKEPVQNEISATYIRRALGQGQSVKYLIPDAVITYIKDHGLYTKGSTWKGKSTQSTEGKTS
Procedure: (§1) A doubly coupled enzyme assay was prepared for NMNAT1, NMNAT2 and NMNAT3. NMNAT activation is normalized, where the reaction rate of NMNAT in the presence of 3 μM of compound NSC was compared to that of a DMSO-treated control.
(§2) These compounds might represent direct activators of the NMNAT2 enzyme.

[5] = tested on: alcohol dehydrogenase (ADH); test: ADH enzyme assay with NAD as substrate (counter-screen); format: biochemical; conditions: 5 μM compound, 50 μM NAD
Procedure: In a secondary screen, the compounds with the relative reaction rate higher than 150% are cherry-picked and retested in triplicates in the doubly coupled NMNAT2 assay. […] Briefly, the ADH enzyme reaction was prepared to contain 50 mM Tris-Cl (pH 8.0), 12 mM MgCl2, 1.5% ethanol, 10 mM semicarbizide, 0.2% bovine serum albumin (BSA), and 0.04 units ADH. 40 µl of the mixture was dispensed into 384-well black polypropylene plates, and individual compounds were added to each well at a final concentration of 5 μM. The reaction was initiated by addition of 50 μM NAD followed by gentle mixing in the plate. The conversion of NAD to NADH was monitored by measuring fluorescence intensity of NADH at an excitation of 340 nm and an emission of 445 nm (Y axis) as a function of time (X axis). Fluorescence at ex340 nm/em445 nm was measured continuously for 30 minutes to establish the kinetic reaction curve of F340/445 versus time. The reaction rates were calculated as described in the NMNAT2 assay. The relative ADH enzyme reaction rate in the presence of each compound is normalized by DMSO-treated control.

[6] = target: NMNAT1 (Homo sapiens, UniProt Q9HAN9); test: doubly coupled enzyme assay prepared for NMNAT1; format: biochemical; conditions: 3 μM compound, FIG. 3, NMNAT isoform comparison
Sequence of NMNAT1 (Q9HAN9 whole entry, species assumed, canonical isoform): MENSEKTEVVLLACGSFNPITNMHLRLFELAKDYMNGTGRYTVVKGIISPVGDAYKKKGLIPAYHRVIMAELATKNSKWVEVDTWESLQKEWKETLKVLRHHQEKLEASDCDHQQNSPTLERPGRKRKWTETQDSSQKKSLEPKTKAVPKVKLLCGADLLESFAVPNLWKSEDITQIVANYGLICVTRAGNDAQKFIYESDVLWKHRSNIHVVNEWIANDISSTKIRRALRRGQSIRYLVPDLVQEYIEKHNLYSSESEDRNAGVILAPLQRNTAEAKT
Procedure: as §1, §2

Row | SMILES | mice paw pressure threshold (Von Frey test) ([1]; 6 mg/kg/day i.p., D-7 to D8, paclitaxel 2 mg/kg on days 0, 2, 4, 6, FIG. 5) | protection of cultured cells against SARM1-mediated toxicity (cell viability, ATP levels) [2] | NMNAT2 activation (reaction rate compared to DMSO-treated control) ([3]; 3 μM compound, FIG. 3, NMNAT isoform comparison) | level of activation in the doubly coupled NMNAT2 assay ([3]; high-throughput screen hits, FIG. 2 with compound at 3 μM) | NMNAT3 activation (reaction rate compared to DMSO-treated control) [4] | mice paw pressure threshold (Von Frey test) ([1]; 3 mg/kg/day i.p., D-7 to D8, paclitaxel 2 mg/kg on days 0, 2, 4, 6, FIG. 6) | mice paw pressure threshold (Von Frey test) ([1]; 10 mg/kg/day i.p., D-7 to D8, paclitaxel 2 mg/kg on days 0, 2, 4, 6, FIG. 6) | mice paw pressure threshold (Von Frey test) ([1]; FIG. 6 legend, dose not stated there) | activity in the ADH assay (relative ADH enzyme reaction rate) [5] | NMNAT1 activation (reaction rate compared to DMSO-treated control) [6]
1 | C/C(=N\NC(=S)NN)c1ccccn1 [Compound 20, (E)-N′-(1-(pyridin-2-yl)ethylidene)hydrazinecarbothiohydrazide] | significantly increased the mice paw pressure threshold | – | – | – | – | – | – | – | – | –
2 | C/C(=N\NC(=S)N1CCC1)c1ccccn1 [Compound NSC, (E)-N′-(1-(pyridin-2-yl)ethylidene)azetidine-1-carbothiohydrazide] | – | protects cultured cells against SARM1-mediated toxicity | activated NMNAT2 strongly; also recorded: activates NMNAT2 | most robust level of activation; also recorded: NMNAT2 activation | not NMNAT3 | significantly increased the mice paw pressure threshold | significantly increased the mice paw pressure threshold | significantly increased the mice paw pressure threshold | inactive in the ADH assay | NMNAT1 weakly; also recorded: activates NMNAT2 and NMNAT1
